The source of these data is patent EP0046349A1, “Clavulanic acid derivatives, their preparation and use” (BEECHAM GROUP PLC, priority 1980, dated 1982).

What all share (type): cell-based
Assay [1] concerns Staph. aureus Russell. Nature of the assay: standard antibacterial test. The conditions noted are these: compound alone. Also noted: unit not given here. From the text:
IN A STANDARD ANTIBACTERIAL TEST, THE FOLLOWING DATA WERE OBTAINED

Assay [2] has as its system Staph. aureus Russell. Nature of the assay: standard MIC synergy test. An excerpt:
(§1) […]

The subject of the next assay is Escherichia coli JT39. Nature of the assay: standard MIC synergy test.
Source text: as §1

The next assay relates to Klebsiella Aerogenes E70. Nature of the assay: standard MIC synergy test. The conditions noted are these: Amoxycillin alone, no inhibitor (comparison); unit assumed.
Source text: as §1

Setting [3] is: Concentration of inhibitor 5.0 μg/ml, MIC of amoxycillin in presence of inhibitor, 'Inhibited' = inhibitor alone inhibits growth.
[4] abbreviates: Concentration of inhibitor 5.0 μg/ml, MIC of amoxycillin in presence of inhibitor.
[5] abbreviates: Amoxycillin alone, no inhibitor (comparison), unit assumed.
[6] abbreviates: Concentration of inhibitor 1.0 μg/ml, MIC of amoxycillin in presence of inhibitor, 'Inhibited' = inhibitor alone inhibits growth.

Turning to `CCC(N)=NC/C=C1\O[C@@H]2CC(=O)N2[C@H]1C(=O)O` [Example 14, 9-N-(1'aminopropylidene)amino-9-deoxyclavulanic acid], in the assay with Staph. aureus Russell [1], the “standard antibacterial test, Staph. Aureus Russell” value (“standard antibacterial test” for short) is given as 4.0. Further, the “MIC synergy test, Staph. aureus Russell” value in the assay with Staph. aureus Russell [2] (setting [3]) is listed as “Inhibited”.
Regarding `CC(=NC/C=C1\O[C@@H]2CC(=O)N2[C@H]1C(=O)O)NCc1ccccc1` [Example 4, 9-N-[1-(N-benzyl)aminoethylidene]amino-9-deoxyclavulanic acid], the “standard antibacterial test” value with Staph. aureus Russell [1] was 2.0. Further, the “MIC synergy test, Staph. aureus Russell” value in the assay with Staph. aureus Russell [2] (setting [3]) is “Inhibited”.
Take `CC(=NC/C=C1\O[C@@H]2CC(=O)N2[C@H]1C(=O)O)NCC(=O)O` [Example 10, Potassium 9-N-[1-(N-Carboxylatomethyl)aminoethylidene]amino-9-deoxyclavulanic acid]: the “standard antibacterial test” value in the assay with Staph. aureus Russell [1] is recorded as 62.5.
Consider `CSCC(N)=NC/C=C1\O[C@@H]2CC(=O)N2[C@H]1C(=O)O` [Example 28, 9-N-(1'-amino-2'-methylthioethylidene) amino-9-deoxyclavulanic acid.], for which the “standard antibacterial test” value in the assay on Staph. aureus Russell [1] is 2.0.
Consider `CCN(C=NC/C=C1\O[C@@H]2CC(=O)N2[C@H]1C(=O)O)CC` [Example 21, 9-N-(diethylaminomethylene) amino-9-deoxyclavulanic acid.], for which the “standard antibacterial test” value in the assay with Staph. aureus Russell [1] was 4.0. Moreover, in the assay with Staph. aureus Russell [2] (setting [3]), the “MIC synergy test, Staph. aureus Russell” value is given as “Inhibited”.
With `NC(=NC/C=C1\O[C@@H]2CC(=O)N2[C@H]1C(=O)O)C1CC1` [Example 19, 9-N-(amino-cyclopropylmethylene) amino-9-deoxyclavulanic acid.], in the assay on Staph. aureus Russell [1], the “standard antibacterial test” value worked out at 4.0. In the assay with Escherichia coli JT39 (setting [4]), the “MIC synergy test, Escherichia coli JT39” value was “Inhibited”. For the same molecule, in the assay on Staph. aureus Russell [2] (setting [3]), the “MIC synergy test, Staph. aureus Russell” value is on record as “Inhibited”.
For `NC=NC/C=C1\O[C@@H]2CC(=O)N2[C@H]1C(=O)O` [Example 5, 9-N-(aminomethylene)amino-9-deoxyclavulanic acid], in the assay with Staph. aureus Russell [1], the “standard antibacterial test” value is on record as 4.0. In the assay with Staph. aureus Russell [2] (setting [3]), the “MIC synergy test, Staph. aureus Russell” value was “Inhibited”.
For the molecule `CC1(C)S[C@@H]2[C@H](NC(=O)[C@H](N)c3ccc(O)cc3)C(=O)N2[C@H]1C(=O)O` [Amoxy-cillin, amoxycillin, reference compound], the MIC synergy test, Escherichia coli JT39 in the assay with Escherichia coli JT39 (setting [5]) was found to be 2000 µg/mL. The MIC synergy test, Staph. aureus Russell with Staph. aureus Russell [2] (setting [5]) came to 500 µg/mL. In addition, the MIC synergy test, Klebsiella Aerogenes E70 with Klebsiella Aerogenes E70 is 1000 µg/mL.
Regarding `CCNC(C)=NC/C=C1\O[C@@H]2CC(=O)N2[C@H]1C(=O)O` [Example 25], the “standard antibacterial test” value with Staph. aureus Russell [1] was 4.0. In the assay with Staph. aureus Russell [2] (setting [3]), the “MIC synergy test, Staph. aureus Russell” value was “Inhibited”.
`CC(=NC/C=C1\O[C@@H]2CC(=O)N2[C@H]1C(=O)O)NCCCCCC(=O)O` [Example 9, Lithium 9-N-[1-(N-5'Carboxylatopentyl)aminoethylidene]amino-9-deoxyclavlanic acid]: in the assay with Staph. aureus Russell [1], the “standard antibacterial test” value stood at 62.5.
Take `O=C(O)[C@H]1/C(=C/CN=C2CCCN2)O[C@@H]2CC(=O)N21` [Example 30, 9-N-(2-pyrrolidylidene) amino-9-deoxyclavulanic acid.]: the “standard antibacterial test” value in the assay with Staph. aureus Russell [1] is 1.0. Further, the “MIC synergy test, Staph. aureus Russell” value in the assay on Staph. aureus Russell [2] (setting [6]) and with Staph. aureus Russell [2] (setting [3]) was “Inhibited” throughout.
On to `CCCC(N)=NC/C=C1\O[C@@H]2CC(=O)N2[C@H]1C(=O)O` [Example 12, 9-N-(1-aminobutylidene)amino-9-deoxyclavulanic acid], for which the “standard antibacterial test” value in the assay on Staph. aureus Russell [1] is 4.0. For the same molecule, the “MIC synergy test, Staph. aureus Russell” value in the assay on Staph. aureus Russell [2] (setting [3]) was “Inhibited”.
On to `CCCCC(N)=NC/C=C1\O[C@@H]2CC(=O)N2[C@H]1C(=O)O` [Example 18, 9-N-(l-aminopentylidene) amino-9-deoxyclavulanic acid.], for which the “standard antibacterial test” value in the assay with Staph. aureus Russell [1] stood at 2.0. Also, in the assay with Staph. aureus Russell [2] (setting [3]), the “MIC synergy test, Staph. aureus Russell” value is “Inhibited”.
With `NC(=NC/C=C1\O[C@@H]2CC(=O)N2[C@H]1C(=O)O)C1CCC1` [Example 20, 9-N-(amino-cyclobutylmethylene) amino-9-deoxyclavulanic acid.], in the assay on Staph. aureus Russell [1], the “standard antibacterial test” value is listed as 4.0. In addition, the “MIC synergy test, Escherichia coli JT39” value with Escherichia coli JT39 (setting [4]) is “Inhibited”. Moreover, the “MIC synergy test, Staph. aureus Russell” value in the assay on Staph. aureus Russell [2] (setting [3]) was “Inhibited”.
With `CNC(=NC/C=C1\O[C@@H]2CC(=O)N2[C@H]1C(=O)O)c1ccccc1` [Example 23], the “standard antibacterial test” value in the assay on Staph. aureus Russell [1] was found to be 2.0. Also, the “MIC synergy test, Staph. aureus Russell” value in the assay on Staph. aureus Russell [2] (setting [6]) and in the assay with Staph. aureus Russell [2] (setting [3]) was “Inhibited” throughout.
With `NC(=NC/C=C1\O[C@@H]2CC(=O)N2[C@H]1C(=O)O)c1ccccc1` [Example 7, 9 N-(1-aminobenzylidene)amino-9-deoxyclavulanic acid], the “standard antibacterial test” value in the assay with Staph. aureus Russell [1] came to 8.0. Also, the “MIC synergy test, Staph. aureus Russell” value in the assay with Staph. aureus Russell [2] (setting [3]) is recorded as “Inhibited”.
Regarding `NC(Cc1cccs1)=NC/C=C1\O[C@@H]2CC(=O)N2[C@H]1C(=O)O` [Example 29, 9-N-(1-amino-2-[2'-thienyl]ethylidene) amino-9-deoxyclavulanic acid.], the “standard antibacterial test” value with Staph. aureus Russell [1] amounted to 2.0.
`CC(=NC/C=C1\O[C@@H]2CC(=O)N2[C@H]1C(=O)O)NCC(C)C` [Example 3, 9-N-[1'-(N-isobutyl)aminoethylidene]amino-9-deoxyclavulanic acid]: the “standard antibacterial test” value in the assay on Staph. aureus Russell [1] came out at 4.0. Besides, the “MIC synergy test, Staph. aureus Russell” value in the assay with Staph. aureus Russell [2] (setting [3]) was “Inhibited”.
`CN(C)C=NC/C=C1\O[C@@H]2CC(=O)N2[C@H]1C(=O)O` [Example 1, 9-N-(Dimethylaminomethylene) amino-9-deoxyclavulanic acid]: the “standard antibacterial test” value with Staph. aureus Russell [1] turned out to be 4.0. For the same molecule, the “MIC synergy test, Staph. aureus Russell” value in the assay on Staph. aureus Russell [2] (setting [3]) is on record as “Inhibited”.
In the case of `COCCC(N)=NC/C=C1\O[C@@H]2CC(=O)N2[C@H]1C(=O)O` [Example 13, 9-N-(1'-amino-3'-methoxypropylidene)amino-9-deoxyclavulanic acid], in the assay with Staph. aureus Russell [1], the “standard antibacterial test” value is given as 16.0.
As for `CNC(C)=NC/C=C1\O[C@@H]2CC(=O)N2[C@H]1C(=O)O` [Example 24, 9-N-[l-(N-methyl)aminoethylidene] amino-9-deoxyclavulanic acid.], in the assay with Staph. aureus Russell [1], the “standard antibacterial test” value was determined as 8.0. For the same molecule, the “MIC synergy test, Staph. aureus Russell” value in the assay on Staph. aureus Russell [2] (setting [3]) is “Inhibited”.
The like results for `CC(=NC/C=C1\O[C@@H]2CC(=O)N2[C@H]1C(=O)O)NCCCCCC(=O)OCc1ccccc1` [Example 8, 9-N-[1(N-5-benzyloxycarbonylpentyl)aminoethylidene]amino-9-deoxyclavulanic acid] were, in that order, 8.0 and “Inhibited”.
On to `CC(C)C(N)=NC/C=C1\O[C@@H]2CC(=O)N2[C@H]1C(=O)O` [Example 16, 9-N-(1 t-amino-2'-methylpropylidene) amino-9-deoxyclavulanic acid.], for which, in the assay with Staph. aureus Russell [1], the “standard antibacterial test” value was determined as 4.0. Also, the “MIC synergy test, Staph. aureus Russell” value in the assay with Staph. aureus Russell [2] (setting [3]) is given as “Inhibited”.
For `O=C(O)[C@H]1/C(=C/CN=C2CCCCN2)O[C@@H]2CC(=O)N21` [Example 31, 9-N-(2-piperidylidene) amino-9-deoxyclavulanic acid.], in the assay with Staph. aureus Russell [1], the “standard antibacterial test” value was determined as 1.0. In addition, the “MIC synergy test, Staph. aureus Russell” value with Staph. aureus Russell [2] (setting [6]) and in the assay on Staph. aureus Russell [2] (setting [3]) was “Inhibited” each time.
For the molecule `O=C(O)[C@H]1/C(=C/CN=CNCc2ccccc2)O[C@@H]2CC(=O)N21` [Example 6, 9-N-(N-benzylaminomethylene)amino-9-deoxyclavulanic acid], the “standard antibacterial test” value in the assay with Staph. aureus Russell [1] is on record as 2.0. Also, the “MIC synergy test, Staph. aureus Russell” value in the assay with Staph. aureus Russell [2] (setting [6]) and in the assay with Staph. aureus Russell [2] (setting [3]) was “Inhibited” in each case.
Turning to `CNC=NC/C=C1\O[C@@H]2CC(=O)N2[C@H]1C(=O)O` [Example 11, 9-N-(N-methylaminomethylene)amino-9-deoxyclavulanic acid], the “standard antibacterial test” value in the assay with Staph. aureus Russell [1] turned out to be 4.0. For the same molecule, the “MIC synergy test, Staph. aureus Russell” value with Staph. aureus Russell [2] (setting [3]) is listed as “Inhibited”.
Consider `O=C(O)[C@H]1/C(=C/CN=CN2CCCCCC2)O[C@@H]2CC(=O)N21` [Example 27, 9-N-(N,N-hexamethyleneaminomethylene) aimno-9-deoxyclavulanic acid.], for which the “standard antibacterial test” value in the assay with Staph. aureus Russell [1] amounted to 1.0. Moreover, the “MIC synergy test, Staph. aureus Russell” value in the assay with Staph. aureus Russell [2] (setting [6]) and with Staph. aureus Russell [2] (setting [3]) was “Inhibited” throughout.
Consider `CC(=NC/C=C1\O[C@@H]2CC(=O)N2[C@H]1C(=O)O)N(C)C` [Example 22, 9-N-[1-(N,N-dimethyl)aminoethylidene] amino-9-deoxyclavulanic acid.], for which the “standard antibacterial test” value in the assay with Staph. aureus Russell [1] is reported as no more than 0.5. Further, the “MIC synergy test, Escherichia coli JT39” value in the assay with Escherichia coli JT39 (setting [4]) was “Inhibited”. Also, the “MIC synergy test, Staph. aureus Russell” value with Staph. aureus Russell [2] (setting [6]) and in the assay with Staph. aureus Russell [2] (setting [3]) was “Inhibited” each time.
Consider `CC(N)=NC/C=C1\O[C@@H]2CC(=O)N2[C@H]1C(=O)O` [Example 2, 9-N-(1'-aminoethylidene)amino-9-deoxyclavulanic acid], for which the “standard antibacterial test” value with Staph. aureus Russell [1] is reported as 16.0. Further, the “MIC synergy test, Staph. aureus Russell” value in the assay on Staph. aureus Russell [2] (setting [3]) is listed as “Inhibited”.
As to `O=C(O)[C@H]1/C(=C/CN=CN2CCCCC2)O[C@@H]2CC(=O)N21` [Example 26, 9-N-(N,N-pentamethyleneaminomethylene) amino-9-deoxyolavulanic acid.], in the assay on Staph. aureus Russell [1], the “standard antibacterial test” value was no more than 0.5. In addition, the “MIC synergy test, Staph. aureus Russell” value in the assay on Staph. aureus Russell [2] (setting [6]) and in the assay with Staph. aureus Russell [2] (setting [3]) was “Inhibited” each time.
